Results published in ChEMBL document CHEMBL1157539, “Thousands of chemical starting points for antimalarial lead identification” (Nature, 2010).

System: Plasmodium falciparum
Experiment: GSK_TCMDC: Inhibition of Plasmodium falciparum 3D7 in whole erythrocytes, using parasite LDH activity as an index of growth.
Format: functional, organism-based
Conditions: Plasmodium falciparum, 3D7

Compound | XC50 [µM]
CN(Cc1ccc(-c2ccc(C(F)(F)F)cc2)cc1)C(=O)Cn1c(CCc2cccc(F)c2F)cc(=O)c2ccc(OCC3CCCN3C)cc21 (stereo not given) | 1.07
CCN(CC)C(C)(C)CN(Cc1ccc(-c2ccc(C(F)(F)F)cc2)cc1)C(=O)Cn1c(CCc2cccc(F)c2F)nc(=O)c2ccccc21 | 0.958
CCN(CC)CCN(Cc1ccc(-c2ccc(C(F)(F)F)cc2)cc1)C(=O)Cn1c(CCc2cccc(F)c2F)nc(=O)c2cc(C)ccc21 | 0.936
COc1ccc(C2N=C(N)N=C(N)N2OCc2ccccc2)cc1OC (stereo not given) | 0.133
O=C(Nc1ccc2c(c1)CCC2)c1cnc(N2CCN(c3ccncc3)CC2)c(Cl)c1 | 1.11
NC1CCCN(Cc2ccc(-c3ccc(-c4nc5ccccc5[nH]4)s3)cc2)C1 (stereo not given) | 0.672
NCC1CCCN1Cc1cccc(-c2ccc(-c3nc4cc(C(F)(F)F)ccc4[nH]3)cc2)c1 (stereo not given) | 0.778
CC1(C)CCC(C)(C)c2c1ccc(C1CCN(CCCCNC(=O)c3ccc(-c4ccc(C#N)cc4)cc3)CC1)c2OCC(N)=O | 0.421
CN1CCN(CCCN(Cc2csc(-c3ccc(CNCc4ccccc4)cc3)n2)C(=O)c2cc(F)cc(F)c2)CC1 | 0.708
Cc1cc(N2Cc3ccccc3C2)nc(Nc2cccc(C#N)c2)n1 | 0.172
CCCNCc1c(O)ccc2c(CNCCC)c(O)ccc12 | 0.597
CCc1ccc(CN2CCCCC(NC(=O)c3cc(-c4ccccc4F)cs3)C2)cc1 (stereo not given) | 1.16
CC(C)C[C@H](Nc1ccc(C#N)c2ccccc12)C(=O)N[C@@H]1CCCc2ccccc21 | 0.763
CN(CCNCc1ccc(-c2cccc(-c3nc4ccccc4[nH]3)c2)cc1)S(C)(=O)=O | 0.945
COc1ccc2ncc(C#N)c(CCN3CCC(NCc4ccc5c(c4)NC(=O)CO5)CC3)c2c1 | 0.588
CCN(CC)CCN(Cc1ccc(-c2ccc(C(F)(F)F)cc2)cc1)C(=O)CN1C(CCc2cccc(F)c2F)=NS(=O)(=O)c2ccccc21 | 0.237
C[C@@H](CNc1ccnc(Nc2ccc3[nH]c(=O)[nH]c3c2)n1)c1ccccc1 | 1.1
COC(=O)c1c(C#N)c(OC)cc(O)c1CSC[C@@H](CN1CCCCC1)Nc1nc(-c2ccc([N+](=O)[O-])cc2)cs1 | 1.27
CCCNCc1ccc(-c2ccc(CN(CCOC)C(=O)c3ccco3)cc2)nc1 | 0.997
N#Cc1ccc(-c2ccc(C(=O)NCCCCN3CCC(c4cc(Br)c5c(c4OCC(N)=O)CCCC5)CC3)cc2)cc1 | 0.797
Fc1ccc(Nc2ccnc3cc(-c4cccc(CN5CCCCC5)c4)ccc23)c(Cl)c1 | 0.0318
O=C(Cn1nc(Br)nc1[N+](=O)[O-])NCC1CCCCC1 | 1.1
O=C(/C=C/c1ccc(C(F)(F)F)cc1)NCCCCCN1CCCN(C(=O)Nc2ccc(Cl)c(C(F)(F)F)c2)CC1 | 0.202
N=c1c2c(n(Cc3ccccc3)c3c1CCC3)CCCC2 | 0.867

Compound | XC50 [µM]
COc1cc(NC(=O)/C=C/c2cc(F)cc(F)c2F)cc(OCCN2CCC3(CC2)OCCO3)c1 | 0.269
Cc1cccc(Nc2nccc(NCC(O)c3cccc(C(F)(F)F)c3)n2)c1 (stereo not given) | 0.514
Cc1ccccc1C1CCN(C2CCC(NC(=O)c3cc(-c4ccccc4)oc3C)CC2)CC1 (stereo not given) | 1.03
COc1ccc2nc3cc(Cl)ccc3c(NCCCCN3CCNCC3)c2c1 | 0.183
CC(C)(C)c1ccc(NC(=O)c2ccc(CN3CCCN(CC4CCCCC4)CC3)cc2)cc1 | 0.542
O=C(Cc1c[nH]cn1)Nc1ccc(-c2ccc(-c3nc4cc(F)ccc4[nH]3)cc2)cc1 | 0.731
COc1ccc2c(c1)CC(CNC[C@H](O)c1cccc(Cl)c1)CC2 (stereo not given in full) | 0.988
Cn1nc(-c2ccc(NC(=O)Nc3cc(C(F)(F)F)ccc3F)c(F)c2)c2cnc(NCCCn3ccnc3)nc21 | 0.736
Cc1cc(=NN=Cc2cccc(Cl)c2)c2ccc(F)cc2[nH]1 | 0.24
CCC[C@@H]([C@@H](CC(C)C)C(=O)N[C@@H](CCCNc1nccc(C(F)(F)F)n1)C(=O)Nc1nccs1)N(O)C=O | 0.373
CNC(=O)Cc1ccc(C(=O)Nc2cccc(-c3ccc(-c4nc5cccc(C)c5[nH]4)s3)c2)cc1 | 0.632
N=c1n(Cc2ccc(Cl)cc2)c2ccccc2n1CC(O)c1ccc(Cl)c(Cl)c1 (stereo not given) | 0.677
O=S(=O)(NCCN1CCCC1)c1ccc(-c2cccc(CNCc3ccc(F)cc3)c2)s1 | 0.764
COc1ccc(Cc2c(Cl)nc3nc(N)nc(N)c3c2C)cc1 | 1.09
CN1CCN(Cc2cccc(-c3cc4nccc(Nc5ccc(Oc6ccccc6)cc5)c4cc3Cl)c2)CC1 | 0.728
N#Cc1cccc(Nc2nccc(Nc3ccc(Oc4ccccc4)cc3)n2)c1 | 0.831
Cc1c(Oc2ccc(-n3ccnc3)cc2)ncnc1N1CCC2(CC1)CNCc1ccccc12 | 0.887
CCCNC(=O)CN1CN(c2ccccc2)C2(CCN(C(=O)c3ccc(C(C)(C)C)cc3)CC2)C1=O | 0.466
Cc1cc(Nc2ccncc2)n2nc(C)c(-c3ccccc3Cl)c2n1 | 0.654
CCCCCCN1CCC(NCc2cccc([N+](=O)[O-])c2)CC1 | 0.668
CCCCCNc1nc2nc(N)nc(N)c2nc1-c1ccccc1 | 0.954
Cc1ccc(Nc2nccc(Nc3ccc4c(C)n[nH]c4c3)n2)cc1F | 0.785
COc1ccc(CNCc2ccc(-c3cccc(-c4nc5cc(F)ccc5[nH]4)c3)cc2)cc1 | 0.202
O=C(/C=C/c1ccc(C(F)(F)F)cc1)NCCCCCN1CCCN(C(=O)Nc2cccc(Cl)c2)CC1 | 0.992

Compound | XC50 [µM]
O=C(Nc1nc(-c2ccccn2)cs1)c1ccccc1COc1ccccc1 | 0.972
Cc1cc(N[C@@H](Cc2ccccc2)C(=O)NCc2cccc(F)c2)nc(NCC2CCCCC2)n1 | 0.855
Cc1cc2ncn(-c3nccc(NCc4cccnc4)n3)c2cc1C | 0.664
OC(COc1ccccc1-c1nc2ccccc2o1)CN1CCCN(CCc2ccccc2)CC1 (stereo not given) | 0.758
Cc1ccc(N2C(N)=NC(N)=NC2(C)C)cc1Cl | 0.00682
CC1(C)N=C(N)N=C(N)N1OCCCOc1cccc(C(=O)O)c1 | 0.0399
CC(=O)Nc1ccc(Nc2ncc([N+](=O)[O-])c(Nc3ccccc3C(N)=O)n2)cc1 | 0.366
COc1c(Br)cc(Br)cc1-c1ccc(CN2C3CCCC2CCC3)[nH]1 | 1.11
CC(C)(C)c1ccc(-c2csc(NC(=O)CC(c3ccccc3)c3ccccc3)n2)cc1 | 1.15
Cc1c(C)c2c(c(C)c1O)CC[C@](C)(C(=O)N1CCC(CN3CCC(c4c[nH]c5ccccc45)CC3)CC1)O2 | 0.718
CCCC1(NC[C@@H](O)[C@H](Cc2ccccc2)NC(=O)c2cc(NCC)cc(N3CCCCS3(=O)=O)c2)CCCCC1 | 0.247
COc1ccc2nccc([C@@H](O)CN3CCC(NCc4ccc5c(c4)N(C)C(=O)CO5)CC3)c2c1 | 0.745
Oc1ccc(Cl)cc1CN1CCC2(CCCN(CC3CCC3)C2)C1 (stereo not given) | 0.368
Cc1ccc(Cn2ncc(N3CCC(N)CC3)c(Cl)c2=O)cc1NC(=O)Nc1ccc(-c2ccccc2)cc1 | 0.917
CCOC(=O)C1=C(C)NC2=C(C(=O)CCC2)C1c1cn(Cc2ccc(Cl)cc2Cl)nc1-c1ccccc1 (stereo not given) | 0.625
COc1ccc(C(=O)C2CC2CN2CC=C(c3c(C)[nH]c4ccccc34)CC2)cc1 (stereo not given) | 0.304
CCCCNC(=O)C(C)NC(=O)c1ccc(O)c(-c2ccc(Cl)c(Cl)c2)c1 (stereo not given) | 0.823
CCN(CCCN1CCCCC1)c1cc(C)nc(Nc2ccc(C)cc2)n1 | 0.411
O=C(NCCN1CCCC1)c1ccc(-c2ccc(-c3nc4ccccc4[nH]3)s2)cc1 | 0.938
COc1ccc(CCNCc2ccc3nc(N)c(C)cc3c2)cc1 | 0.992
COc1c(C2CCN(CCCCNC(=O)c3ccc(C)c(-c4ccc(C(F)(F)F)cc4)c3)CC2)ccc2c1CCCC2 | 0.883
CCOc1cc(C)ccc1N1CCN(CCCCNC(=O)c2ccc(NC(=O)c3ccc(Cl)cc3)cc2)CC1 | 0.637
Cc1cccc2nc(C3CCN(CC4CCN(C(=O)/C=C/c5ccc(Cl)c(Cl)c5)CC4)CC3)[nH]c12 | 0.485
N#Cc1ccnc(-c2ccc(CNC3CCN(CC4Cn5c(=O)ccc6ccc(F)c4c65)CC3)cc2)c1 (stereo not given) | 1.22

Compound | XC50 [µM]
Cc1cccc(-n2nc(C)c3c2NC(=O)CC3C(=O)c2ccc(Cl)s2)c1 (stereo not given) | 0.466
O=C(NCCCCN1CCN(c2nsc3ccccc23)CC1)c1ccccc1C(=O)NCCCCN1CCN(c2nsc3ccccc23)CC1 | 0.887
Nc1nc(N)c2c(ccc3c2ccn3Cc2ccccn2)n1 | 0.00831
COc1cc(NC(=O)c2nn(CCCN3CCC(N4CCCC4)CC3)cc2-c2ccc(Cl)c(Cl)c2)cc(OC)c1OC | 0.555
Cc1cc(=NN=Cc2ccccc2Cl)c2ccccc2[nH]1 | 0.904
Cc1cc(F)ccc1-c1nc(NCCCNCCc2ccccc2)nc2c1ccc(=O)n2-c1c(F)cccc1F | 0.186
c1cc(CNCc2ccc3c(c2)OCO3)cc(-c2cccc(CNc3ccc4ncccc4c3)c2)c1 | 0.76
Cc1cccc(C(=O)Nc2ccnc(N3CCCN(Cc4cccc(O)c4)CC3)c2)c1 | 1.21
O=C(Nc1ccccc1)Nc1cccc(-c2ccc(-c3nc4cc(C(F)(F)F)ccc4[nH]3)cc2)c1 | 0.231
CCNc1cc(C(=O)N[C@@H](Cc2ccccc2)[C@H](O)CNC2(CC(C)C)CC2)cc(N2CCCCS2(=O)=O)c1 | 1.02
Clc1cc(Br)ccc1-c1ccc(CNCC2CCNCC2)o1 | 1.51
O=C(Cc1cc(=O)oc2cc(O)ccc12)NC1CCC(CN2CCC(c3c[nH]c4ccccc34)CC2)CC1 (stereo not given) | 1.13
CO/C(=C\C=C\c1cc2cc(Cl)c(Cl)cc2[nH]1)C(=O)NC1CCN(CCNc2ccccc2)CC1 | 0.258
O=C(Nc1cccc(-c2ccc(CN3CCNCC3)cc2)c1)c1cccc(Cl)c1 | 1.25
COc1ccc2nccc(N3CCC(SCCNCc4ccc5c(n4)NC(=O)CO5)C3)c2n1 (stereo not given) | 0.801
CCc1ccc(C2CCN(CCCCNC(=O)c3ccc(-c4ccc(C#N)cc4)cc3)CC2)c(OCCO)c1 | 0.938
C=CCNC(=O)C(C)c1ccc2cc(OC)ccc2c1 (stereo not given) | 0.42
CCN(CC)S(=O)(=O)c1ccc(Cl)c(C(=O)Nc2ccc3nc(C)sc3c2)c1 | 0.798
COc1ccc(C2CCN(CCCCNC(=O)c3ccc(NC(=O)c4ccc(Cl)cc4)cc3)CC2)cc1Cl | 0.843
O=C(/C=C/c1cc(C(F)(F)F)ccc1F)N1CCC(CN2CCC(c3c[nH]c4ccccc34)CC2)CC1 | 0.994
O=C(Nc1ccccc1)N(Cc1ccccc1-c1cccc(CNCc2ccc3c(c2)OCO3)c1)C1CCN(Cc2ccccc2)CC1 | 0.108
Cc1nc2nc(N)nc(N)c2c(C)c1Cc1cccs1 | 0.777
CC(C)(CNC(=O)C1CCN(CC2CCCCC2)CC1)c1nc(-c2ccc(Cl)c(O)c2)c(-c2ccncc2)[nH]1 | 0.888
